Results reported in patent US8785400B2, “Methods and compositions relating to islet cell neogenesis” (CureDM Group Holdings, LLC, priority 2006, dated 2014).

How the values were obtained:
[1] = doses up to 10,000 IU/day; cited from earlier work
[2] = test system: streptozocin-induced diabetic mouse; test: Streptozocin-induced diabetic mouse (Example 6); type: in vivo; settings: streptozocin mice; for mean reduction in glucose: from baseline, placebo 9.5%
Source text: The streptozocin-induced diabetic mouse is a convenient animal model of type 1 diabetes because researchers are able to chemically induce diabetes under controlled conditions rather than waiting for mice to become diabetic naturally or by forcing diabetes through prescribed obesity. Based on experience with the streptozocin model in the rat, a high degree of variability was anticipated for the induction of the disease in mice and therefore 60 mice were induced with streptozocin. Mice were injected intraperitoneally with streptozocin at 40 mg/kg in citrate buffer, pH4.5, on 5 consecutive days in an attempt to render them diabetic. A mouse was considered diabetic once its blood glucose level was greater than 16.7 mmol/L (300 mg/dL) for at least 1 week. If the blood glucose level of any animal became too high (>400 mg/dL) the animal was treated with an effective amount of insulin. In this example, 60 male mice, ranging from 6-8 weeks old at the outset of the study, were treated with streptozocin as described above. Those mice that were declared diabetic were then used to test the effectiveness of HIP2 as compared to other test agents.
Animals were group housed in compliance with the National Research Council “Guide for the Care and Use of Laboratory Animals”. The animals received 12 hours light/12 hours dark, except when room lights were turned on during the dark cycle to accommodate study procedures. Room temperature was maintained between 18 to 26° C. at all times. Relative humidity was maintained between 30-70% at all times. All animals were given access to Harlan Teklad Rodent Diet or equivalent and tap water via water bottle. Animals were allowed to acclimate to their new environment for a minimum of 7 days prior to first dosing.
Mice were randomly divided and assigned to study groups. Each study group was assigned treatment with one of 5 test agents (see Treatment section below). Prior to being treated, each mouse was tested for diabetes via monitoring their blood glucose levels. After confirmation that the mice were diabetic (blood glucose levels greater than 16.7 mmol/L (300 mg/dL) for at least 1 week) the mice were dosed with their respective test agent.
Each study group received doses of one of the following test agents: HIP2, HIP1, HIP, Hamster INGAP (SEQ ID NO:1) or isotonic saline “Vehicle” (0.9% NaCl) (negative control). Mice were given doses of their respective agent interperitoneally twice daily (am and pm, +/−2 hours for each administration) at 250 ug/dose, in 100 ul dose volume, for 28 consecutive days. Test agents were prepared once daily by dissolving the appropriate amount of test agent in isotonic saline to result in a 2.5 mg/ml solution. Blood glucose levels were tested every 3 days, at the same time each day, using a glucometer. If the blood glucose level in any animal became too high, the animal was treated with insulin. At the end of the treatment, all surviving animals were euthanized by CO2 asphyxiation following terminal blood collection. Blood samples were collected under CO2 cardiocentesis. The plasma was separated and then frozen at −80° C. For histological analysis, the pancreas from each mouse was removed and snap-frozen.
Blood glucose levels are measured every 3 days and tracked to evaluate differences in glucose levels.

[3] = test system: pancreatic islets of treated mice; test: Quantitative immunohistochemistry image analysis of mouse pancreata (Example 7); type: in vivo
Source text: The islet mass of the placebo group was 854,362 μm (2) compared with 2,161,782 μm (2) in HIP-treated mice.
Islet size was not different between HIP treated and control group, whereas, islet number and mass was increased.

[4] = test system: human pancreatic progenitor cells; test: Inverted microscopy of human ductal/progenitor tissue cultures (Example 4); type: cell-based
[5] = test system: type 1 diabetes patients; settings: single course; after onset of type 1 diabetes, some patients; cited from earlier work
[6] = test system: diabetic patients; settings: cited from earlier work

## C=C1CC[C@H](O)C/C1=C/C=C1\CCC[C@]2(C)[C@@H]([C@H](C)CCCC(C)C)CC[C@@H]12 [Vitamin D, cholecalciferol]
[1]
  adverse effects: No adverse effects

## HIP: Human proIslet Peptide, 15-mer human counterpart of the hamster INGAP peptide (SEQ ID NO:2) (IGLHDPTQGTEPNGE; Fragment of naturally occurring human REG3 protein)
[2]
  overall insulin requirements lower compared to controls: 32%
  mean reduction in glucose: 26.9%
[2]; compared to placebo
  insulin requirements (and rate of decrease): significant reduction
[3]; mouse, in vivo
  islet size vs placebo/control: not statistically different
[3]; p=0.022
  number of islets counted greater than placebo group: 62%
[3]; p=0.05
  total islet mass greater than placebo group: 153%
[3]; placebo 280
  islets counted: 454
[3]; placebo 854,362
  islet mass: 2,161,782 μm (2)
[3]; vs control
  total islet mass (qualitative): increased
  total islet number (qualitative): increased
[4]; day 2 of treatment (day 12)
  morphology of progenitor tissue cultures (FIG. 7A): forming a nidus of new insulin producing islets
[4]; day 6 of treatment (day 18)
  morphology of progenitor tissue cultures (FIG. 7B): forming insulin producing islet like structure

## hOKT3gamma1 (Ala-Ala): anti-CD3 monoclonal antibody
[5]
  duration of improvement in C-peptide responses and clinical parameters: at least 2 years

## hamster INGAP: non-human islet neogenesis associated peptide, hamster sequence, positive control (SEQ ID NO:1) (IGLHDPSHGTLPNGS; Fragment of naturally occurring hamster INGAP protein)
[6]; 300 mg/day, Phase II
  patients with a >50% increase in GAD65 antibody titers: 22 % of the patients
[6]; 600 mg/day
  C-peptide secretion: increase in C-peptide secretion
[6]; Phase I and II trials
  tolerability: well tolerated
[6]; Phase II trial, diabetic patients
  drop out due to injection site reactions: high drop out
[6]; Phase II trial
  effectiveness: Little effectiveness
[6]; type 2 diabetes patients
  hemoglobin A1C: fell
[2]
  overall insulin requirements lower compared to controls: 14%
  mean reduction in glucose: 20%
